One test addresses T1, Monoglyceride lipase (Homo sapiens, UniProt Q99685).
T1 sequence (Q99685 whole entry): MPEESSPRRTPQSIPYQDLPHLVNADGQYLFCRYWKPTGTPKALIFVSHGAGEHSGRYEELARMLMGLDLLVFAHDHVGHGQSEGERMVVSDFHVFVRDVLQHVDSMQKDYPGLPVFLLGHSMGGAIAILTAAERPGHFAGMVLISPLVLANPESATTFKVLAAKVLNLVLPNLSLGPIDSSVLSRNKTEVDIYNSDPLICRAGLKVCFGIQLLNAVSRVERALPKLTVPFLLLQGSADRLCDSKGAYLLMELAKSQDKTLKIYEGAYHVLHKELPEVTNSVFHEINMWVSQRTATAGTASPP
Nature of the test: This medium throughput assay involved a 96-well plate format in which hMGL activity was monitored by the hydrolysis of the substrate 7-hydroxy-6-methoxy-4-methylcoumarin ester (AHMMCE) to form the fluorescent product, coumarin. […] Upon the addition of AHMMCE, the reaction was incubated at 25° C. for 120 min; fluorescence readings were taken every 15 min at 360 nm/460 nm (λexcitation/λemission) using a Synergy HT Plate Reader (Bio-Tek, Winooski, Vt.). […] External standards were used to convert relative fluorescence units to the amount of 4-methylcoumarin formed.

Test [1] in a line: Fluorescent Assay: hABHD6:Initial Fluorescent Inhibition Assay (3-Point)—In each well of a 96-well plate 8 μL of membrane fraction containing full-length hABHD6 (1 μg total protein) was mixed with 168 μL of assay buffer (50 mM Tris-HCl, pH 7.6), and 20 μL of diluted compound (diluted in a dilution buffer consisting of 50% DMSO/50% assay buffer v/v). Each plate was incubated at RT for 15 minutes before adding 4 μL of 1 mM AHMMCE substrate (final concentration of 20 μM AHMMCE and final volume of 200 μL). The reaction was allowed to proceed for 1 hr at RT before the fluorescence was read at λex 360 nm and λem 460 nm and the inhibition calculated. Each experiment can test 8 compounds at three concentrations (usually 10 μM, 1 μM, and 100 nM).

For two compounds, IC50 results are on record in ChEMBL document CHEMBL5727717, “ABHD6 and dual ABHD6/MGL inhibitors and their uses” (2020).

On to `O=C(OC(C(F)(F)F)C(F)(F)F)N1Cc2ccc(N3CCS(=O)(=O)CC3)cc2C1`, for which the IC50 on Monoglyceride lipase is over 1000 nM. As to `O=C(OC(C(F)(F)F)C(F)(F)F)N1CCC2(CC(OC(c3ccc(F)cc3)c3ccc(F)cc3)C2)C1` (configuration not stated), the half-maximal inhibitory concentration (IC50) in test [1] is over 1000 nM.

The IC50 is the point on the concentration scale where inhibition reaches its midpoint.
